Assay results from publication PMC5697638, “Identification of a Potent Phosphoinositide 3‐Kinase Pan Inhibitor Displaying a Strategic Carboxylic Acid Group and Development of Its Prodrugs” (Chemmedchem, 2017).

Columns and labels:
PC3 cells = assay: PC3 cell proliferation (MTT); assay type: cell-based; design: key to Cell proliferation: active: Active: able to reduce proliferation to an extent greater than 50 %; inactive: able to reduce proliferation to an extent less than 50 %; conditions: PC3 cells, 10 μM of each prodrug
Protocol: The biological activity of each prodrug was tested by analyzing their ability to decrease PC3 proliferation as a rapid test to evaluate the PI3Ks inhibitory activity after hydrolysis in a cell‐based assay. […] The choice of using such a cut‐off was due to the intent to identify rapidly which prodrug could be hydrolyzed in the assay to release the active compound. As expected, a good correlation between rate of hydrolysis and cellular activity was observed, and esters 64–68 and 70–73 were determined to be good candidates for topical use. We decided to focus our attention on ester 64, as its half‐life was a good compromise for a prodrug. The EC50 value of this ester was then evaluated on PC3 cells, and a value of (2.3±0.8) μM was obtained.
Cell proliferation: PC3 cell proliferation was measured with a 3‐(4,5‐dimethyl thiazol‐2‐yl)‐2,5‐diphenyltetrazolium bromide (MTT)‐based colorimetric assay (#11 465 007 001 Roche Diagnostic GmbH, Germany). PC3 cells were seeded in a 96‐well plate at a concentration of 10^4 cells mL^−1. PC3 cells were treated for 72 h with increasing concentrations of 64, and MTT was added. After ON solubilization of the MTT metabolite, formazan, the absorbance (λ=550–600 nm absorbance, with a reference wavelength of 650 nm) of each well was read in a multi‐well reader (Glomax multi detection system, Promega, model number 9301‐010). The percentage of proliferating cells was calculated by relating each absolute value to the control intended as PC3 cells treated with DMSO alone. An IC50 value was then derived by plotting all data on a dose–response curve (Graph Pad software) by using nonlinear regression fit (equation [log agonist] versus response).

[1] = stability in mouse plasma; assay type: in vitro ADME; conditions: 50 μM substrate; for half-life at 50 µM: mouse, mouse plasma, 30 min incubation, 37 °C, read-out: Mouse plasma t 1/2; for hydrolysis by mouse plasma hydrolases: 30 min
Protocol: Twelve esters were prepared (see the Experimental Section for their synthesis and the Supporting Information for chromatographic methods) and evaluated in terms of metabolic stability. For this task, a combined approach based on microsomal and plasmatic stability assays was exploited considering the relevance of the plasmatic and hepatic tissues in esterase activity. Microsomal stability of the selected esters was evaluated by monitoring the disappearance of the substrate incubated in rat liver microsomes (RLM) at 50 μM concentration, in the presence of NADPH. In Table 4, the percentage of the remaining substrate, after incubation (t=60 min), with respect to the initial amount is reported. Overall, the compounds underwent a relevant metabolic transformation, and the substrate depletion ranged from 0 (for 76) to 100 % (for 70). This is mainly due to hydrolysis of the ester function, whereas the metabolites arising from the oxidation catalyzed by the NADPH‐dependent monooxygenase system were negligible from a quantitative point of view. Indeed, the main metabolite formed during the incubation of the esters was corresponding carboxyl derivative 37. […] Moreover, whereas CH2‐pyridin‐4‐yl ester 70 was completely metabolized, corresponding benzyl derivative 65 and piperonyl derivative 72 were more hydrolytically stable, and their residual substrates were 53 and 83 %, respectively. The hydrolytic stability of the selected esters was also evaluated by monitoring the depletion of the substrate incubated at a 50 μM concentration in mouse plasma over a period of 30 min. As expected, the plasmatic metabolic fate of the esters was characterized by the formation of 37 as the only metabolite (see Figure S4). The rate constant k [min^−1], derived for the substrate peak area versus time curve (single‐exponential decay equation—GraphPad Prism software, Inc., San Diego, CA (USA); see Figure S5) was used to calculate the in vitro half‐life t 1/2 [min], and the values are reported in Table 4. […]
Stability of PI3K inhibitors in mouse plasma
An aliquot of 460 µL of blank plasma spiked with substrate (50 µM, final concentration, DMSO 5%) was incubated at 37 °C for 30 minutes. Aliquots (70 µL) of the incubation took at 0-2-5-10-20, and 30 minutes were diluted with 140 µL of acetonitrile, homogenized, and centrifuged at 13,000 rpm for five minutes. Supernatants (20 µL) were injected onto HPLC.
(§1) A Shimadzu HPLC system (Shimadzu, Kyoto, Japan), consisting of two LC-10AD Vp module pumps, an SLC-10A Vp system controller, an SIL-10AD Vp autosampler, and a DGU-14-A on-line degasser was used for the analysis. All the chromatographic separations were performed on a Phenomenex Luna C18 5µm (150 x 4.6 mm i.d.) (Phenomenex srl, Castel Bolognese, Italy) as a stationary phase protected by a Luna C18 SecurityGuard (Phenomenex srl). The SPD-M10Avp photodiode array detector was used to detect the analyte at 254 nm. LC Solution 1.24 software was used to process the chromatograms. Aliquots (20 µL) of supernatants obtained from incubations were injected onto the HPLC system and eluted with a mobile phase (flow rate: 1 mL/min) consisting of solvent A- 0.5% aqueous formic acid solution and solvent B- acetonitrile/methanol 80:20.
(§2) The eluants were filtered through a 0.45-µm pore size polyvinylidene difluoride membrane […]
(§3) The following gradients programs were used: […]

[2] = metabolic stability in rat liver microsomes (RLM); assay type: in vitro ADME; conditions: RLM, 50 μM substrate, with NADPH; for Residual microsomal substrate (t=60 min): LC–UV; for substrate depletion: 60 min
Protocol: Twelve esters were prepared (see the Experimental Section for their synthesis and the Supporting Information for chromatographic methods) and evaluated in terms of metabolic stability. For this task, a combined approach based on microsomal and plasmatic stability assays was exploited considering the relevance of the plasmatic and hepatic tissues in esterase activity. Microsomal stability of the selected esters was evaluated by monitoring the disappearance of the substrate incubated in rat liver microsomes (RLM) at 50 μM concentration, in the presence of NADPH. In Table 4, the percentage of the remaining substrate, after incubation (t=60 min), with respect to the initial amount is reported. Overall, the compounds underwent a relevant metabolic transformation, and the substrate depletion ranged from 0 (for 76) to 100 % (for 70). This is mainly due to hydrolysis of the ester function, whereas the metabolites arising from the oxidation catalyzed by the NADPH‐dependent monooxygenase system were negligible from a quantitative point of view. Indeed, the main metabolite formed during the incubation of the esters was corresponding carboxyl derivative 37. […] Moreover, whereas CH2‐pyridin‐4‐yl ester 70 was completely metabolized, corresponding benzyl derivative 65 and piperonyl derivative 72 were more hydrolytically stable, and their residual substrates were 53 and 83 %, respectively. The hydrolytic stability of the selected esters was also evaluated by monitoring the depletion of the substrate incubated at a 50 μM concentration in mouse plasma over a period of 30 min. As expected, the plasmatic metabolic fate of the esters was characterized by the formation of 37 as the only metabolite (see Figure S4). The rate constant k [min^−1], derived for the substrate peak area versus time curve (single‐exponential decay equation—GraphPad Prism software, Inc., San Diego, CA (USA); see Figure S5) was used to calculate the in vitro half‐life t 1/2 [min], and the values are reported in Table 4.
Metabolic stability of PI3K inhibitors in RLM fraction
The standard incubation mixture (500 µL final volume), in 1.5 mL Eppendorf tubes, was carried out in a 50 mM TRIS-HCl buffer (pH 7.4) containing 3.3 mM MgCl2, 1.3 mM NADPNa2, 3.3 mM glucose 6-phosphate, 0.4 Units/mL glucose 6-phosphate dehydrogenase (NADPH regenerating system), acetonitrile as cosolvent (1% of final volume) and 50 µM of substrate. After pre-equilibration of the mixture, an appropriate volume of rat microsomal suspension was added to give a final protein concentration of 1 mg/mL. The mixture was shaken for 1 hour at 37°C and the reaction was quenched by diluting the samples with 500 µL of ice-cold acetonitrile. The samples were then centrifuged at 13,000 rpm for 10 min, and the supernatant was directly injected onto the HPLC column for analysis. Control incubations were performed without microsomes. […]
as §1, §2, §3

| Compound | Cell proliferation (PC3 cells) | half-life at 50 µM [1] | Residual microsomal substrate (t=60 min) [2] | hydrolysis by mouse plasma hydrolases [1] | substrate depletion [2] |
| --- | --- | --- | --- | --- | --- |
| O=C(OCc1ccccc1)c1cccc(Cn2cc(-c3cccc4c(=O)cc(N5CCOCC5)[nH]c34)nn2)c1 [Compound 65, Benzyl 3‐{[4‐(2‐morpholino‐4‐oxo‐1,4‐dihydroquinolin‐8‐yl)‐1H‐1,2,3‐triazol‐1‐yl]methyl}benzoate] | active | < 1 min | 53% |  |  |
| CC(C)OC(=O)c1cccc(Cn2cc(-c3cccc4c(=O)cc(N5CCOCC5)[nH]c34)nn2)c1 [Compound 66, Isopropyl 3‐{[4‐(2‐morpholino‐4‐oxo‐1,4‐dihydroquinolin‐8‐yl)‐1H‐1,2,3‐triazol‐1‐yl]methyl}benzoate] | active | 15.1 min | 16% |  |  |
| CCOC(=O)c1cccc(Cn2cc(-c3cccc4c(=O)cc(N5CCOCC5)[nH]c34)nn2)c1 [Compound 67, Ethyl 3‐{[4‐(2‐morpholino‐4‐oxo‐1,4‐dihydroquinolin‐8‐yl)‐1H‐1,2,3‐triazol‐1‐yl]methyl}benzoate] | active |  | 24% |  |  |
| CCCCOC(=O)c1cccc(Cn2cc(-c3cccc4c(=O)cc(N5CCOCC5)[nH]c34)nn2)c1 [Compound 68, Butyl 3‐{[4‐(2‐morpholino‐4‐oxo‐1,4‐dihydroquinolin‐8‐yl)‐1H‐1,2,3‐triazol‐1‐yl]methyl}benzoate] | active | < 1 min | 53% |  |  |
| CC(C)(C)OC(=O)c1cccc(Cn2cc(-c3cccc4c(=O)cc(N5CCOCC5)[nH]c34)nn2)c1 [Compound 69, tert ‐Butyl 3‐{[4‐(2‐morpholino‐4‐oxo‐1,4‐dihydroquinolin‐8‐yl)‐1H‐1,2,3‐triazol‐1‐yl]methyl}benzoate] | inactive |  | 79% | inert to the mouse plasma hydrolases |  |
| O=C(OCc1ccncc1)c1cccc(Cn2cc(-c3cccc4c(=O)cc(N5CCOCC5)[nH]c34)nn2)c1 [Compound 70, Pyridin‐4‐ylmethyl 3‐{[4‐(2‐morpholino‐4‐oxo‐1,4‐dihydroquinolin‐8‐yl)‐1H‐1,2,3‐triazol‐1‐yl]methyl}benzoate] | active | < 1 min | 0% |  | 100% |
| O=C(OCCN1CCOCC1)c1cccc(Cn2cc(-c3cccc4c(=O)cc(N5CCOCC5)[nH]c34)nn2)c1 [Compound 71, 2‐Morpholinoethyl 3‐{[4‐(2‐morpholino‐4‐oxo‐1,4‐dihydroquinolin‐8‐yl)‐1H‐1,2,3‐triazol‐1‐yl]methyl}benzoate] | active | 2.5 min | 18% |  |  |
| O=C(OCc1ccc2c(c1)OCO2)c1cccc(Cn2cc(-c3cccc4c(=O)cc(N5CCOCC5)[nH]c34)nn2)c1 [Compound 72, Benzo[d][1,3]dioxol‐5‐yl methyl 3‐{[4‐(2‐morpholino‐4‐oxo‐1,4‐dihydroquinolin‐8‐yl)‐1H‐1,2,3‐triazol‐1‐yl]methyl}benzoate] | active | < 1 min | 83% |  |  |
| CC(C)CCOC(=O)c1cccc(Cn2cc(-c3cccc4c(=O)cc(N5CCOCC5)[nH]c34)nn2)c1 [Compound 73, Isopentyl 3‐{[4‐(2‐morpholino‐4‐oxo‐1,4‐dihydroquinolin‐8‐yl)‐1H‐1,2,3‐triazol‐1‐yl]methyl}benzoate] | active | < 1 min | 39% |  |  |
| CCCC(C)OC(=O)c1cccc(Cn2cc(-c3cccc4c(=O)cc(N5CCOCC5)[nH]c34)nn2)c1 (stereo not shown) [Compound 74, Pentan‐2‐yl 3‐{[4‐(2‐morpholino‐4‐oxo‐1,4‐dihydroquinolin‐8‐yl)‐1H‐1,2,3‐triazol‐1‐yl]methyl}benzoate] | inactive | 4.2 min | 60% |  |  |
| CCCCCCCCCCCOC(=O)c1cccc(Cn2cc(-c3cccc4c(=O)cc(N5CCOCC5)[nH]c34)nn2)c1 [Compound 75, Undecyl 3‐{[4‐(2‐morpholino‐4‐oxo‐1,4‐dihydroquinolin‐8‐yl)‐1H‐1,2,3‐triazol‐1‐yl]methyl}benzoate] | inactive | 4.4 min | 80% |  |  |
| CCCCCCCCCCCCCCCCCCOC(=O)c1cccc(Cn2cc(-c3cccc4c(=O)cc(N5CCOCC5)[nH]c34)nn2)c1 [Compound 76, Octadecyl 3‐{[4‐(2‐morpholino‐4‐oxo‐1,4‐dihydroquinolin‐8‐yl)‐1H‐1,2,3‐triazol‐1‐yl]methyl}benzoate] | inactive |  | 100% | inert to the mouse plasma hydrolases | 0% |
